{
  "source": "patent US4725683A",
  "about": "“Fluorophenoxyphenoxypropionates and derivatives thereof” (The Dow Chemical Company, priority 1985, dated 1988)",
  "experiment_in_all_cases": "Postemergent activity",
  "assay_type_in_all_cases": "in vivo",
  "key": {"Wheat": {"tested_on": "Wheat", "details": "Triticum aestivum, post-emergence, 336 h, read-out: % Control", "description": "(§1) Representative compositions of the present invention were evaluated for the postemergence control of species of plants listed in Table A. In these evaluations, pots of the plant species listed in Table A, grown to a height of about 10 cms, were used. Aqueous spray compositions, containing various amounts of 2-[4-(2-fluoro-4-trifluoromethylphenoxy)-phenoxy]propionic acid methy ester, i.e., 125 ppm, 62.5 ppm, 31.25 ppm, 15.6 ppm, 7.8 ppm and 3.9 ppm, respectively, were applied to separate pots. The spray compositions were made by mixing the active ingredient in acetone to 1/2 the final volume, i.e., twice the final concentration. An equal amount of water was added to the active ingredient/acetone mixture wherein the water contained 0.1 percent by weight of TWEEN® 200 surfactant. The application to the plants was made to the point of run-off and was carried out with conventional spraying equipment. Other pots were sprayed with similar compositions containing no toxicant to serve as controls. Thereafter, the pots were maintained under conditions conducive for plant growth. Two weeks after treatment, the pots were examined for plant growth and evaluated on a scale of 0 to 100 where 0 represents no effect and 100 represents complete kill. The results of the examination of the treated pots are set forth below in Table A.\n(§2) Substantially the same procedures as those described in Example A were repeated except that the active ingredients were 2-[4-(4-chloro-2-fluorophenoxy)phenoxy]propionic acid; methyl ester and its R-enantiomer and 2-(4-(4-bromo-2-fluorophenoxy)phenoxy propionic acid; methyl ester and its R enantiomer. The results are listed below in Table B.\n(§3) In further operations employing the above general procedures and the indicated test compounds the following results were obtained: […]"}, "Wild Oats": {"tested_on": "Wild Oats", "details": "Avena fatua, post-emergence, 336 h", "description": "as §1, §2, §3"}, "Yellow Foxtail": {"tested_on": "Yellow Foxtail", "description": "(§4) Representative compositions of the present invention were evaluated for the postemergence control of species of plants listed in Table A. In these evaluations, pots of the plant species listed in Table A, grown to a height of about 10 cms, were used. […] The spray compositions were made by mixing the active ingredient in acetone to 1/2 the final volume, i.e., twice the final concentration. An equal amount of water was added to the active ingredient/acetone mixture wherein the water contained 0.1 percent by weight of TWEEN® 200 surfactant. The application to the plants was made to the point of run-off and was carried out with conventional spraying equipment. […] Thereafter, the pots were maintained under conditions conducive for plant growth."}, "Barley": {"tested_on": "Barley", "description": "as §4"}, "Blackgrass": {"tested_on": "Blackgrass", "description": "as §4"}, "Cheatgrass": {"tested_on": "Cheatgrass", "description": "as §4"}, "Green Foxtail": {"tested_on": "Green Foxtail", "description": "as §4"}},
  "note": "Like-named read-outs stand apart in the source and are kept apart here.",
  "data": [
    {"smiles": "COC(=O)C(C)Oc1ccc(Oc2ccc(C(F)(F)F)cc2F)cc1", "note": "(stereo not shown) [2-[4-(2-fluoro-4-trifluoromethylphenoxy)phenoxy]propionic acid methyl ester]", "values": [
      {"measurement": "plant injury at 3.9 ppm", "setting": "Wheat; 3.9 ppm", "result": 0, "unit": "%"},
      {"measurement": "plant injury at 7.8 ppm", "setting": "Wheat; 7.8 ppm", "result": 60, "unit": "%"},
      {"measurement": "plant injury at 15.6 ppm", "setting": "Wheat; 15.6 ppm", "result": 90, "unit": "%"},
      {"measurement": "plant injury at 31.25 ppm", "setting": "Wheat; 31.25 ppm", "result": 100, "unit": "%"},
      {"measurement": "plant injury at 62.5 ppm", "setting": "Wheat; 62.5 ppm", "result": 100, "unit": "%"},
      {"measurement": "plant injury at 125 ppm", "setting": "Wheat; 125 ppm", "result": 100, "unit": "%"},
      {"measurement": "pest or weed control at 3.9 ppm", "setting": "Wild Oats; 3.9 ppm", "result": 0, "unit": "%"},
      {"measurement": "pest or weed control at 7.8 ppm", "setting": "Wild Oats; 7.8 ppm, read-out: % Control", "result": 0, "unit": "%"},
      {"measurement": "pest or weed control at 15.6 ppm", "setting": "Wild Oats; 15.6 ppm, read-out: % Control", "result": 60, "unit": "%"},
      {"measurement": "pest or weed control at 31.25 ppm", "setting": "Wild Oats; 31.25 ppm, read-out: % Control", "result": 100, "unit": "%"},
      {"measurement": "pest or weed control at 62.5 ppm", "setting": "Wild Oats; 62.5 ppm, read-out: % Control", "result": 100, "unit": "%"},
      {"measurement": "pest or weed control at 125 ppm", "setting": "Wild Oats; 125 ppm, read-out: % Control", "result": 100, "unit": "%"},
      {"measurement": "% Control", "setting": "Yellow Foxtail; 3.9 ppm", "result": 35, "unit": "%"},
      {"measurement": "% Control", "setting": "Yellow Foxtail; 7.8 ppm", "result": 100, "unit": "%"},
      {"measurement": "% Control", "setting": "Yellow Foxtail; 15.6 ppm", "result": 100, "unit": "%"},
      {"measurement": "% Control", "setting": "Yellow Foxtail; 31.25 ppm", "result": 100, "unit": "%"},
      {"measurement": "% Control", "setting": "Yellow Foxtail; 62.5 ppm", "result": 100, "unit": "%"},
      {"measurement": "% Control", "setting": "Yellow Foxtail; 125 ppm", "result": 100, "unit": "%"}
    ]},
    {"smiles": "COC(=O)C(C)Oc1ccc(Oc2ccc(Cl)cc2F)cc1", "note": "(racemic) [Example 4-Chloro-, 2-[4-(4-chloro-2-fluorophenoxy)phenoxy]propionic acid methyl ester]", "values": [
      {"measurement": "plant injury at 15.6 ppm", "setting": "Wheat", "result": 0, "unit": "%"},
      {"measurement": "plant injury at 31.25 ppm", "setting": "Wheat", "result": 0, "unit": "%"},
      {"measurement": "plant injury at 62.5 ppm", "setting": "Wheat", "result": 0, "unit": "%"},
      {"measurement": "plant injury at 125 ppm", "setting": "Wheat", "result": 0, "unit": "%"},
      {"measurement": "plant injury at 250 ppm", "setting": "Wheat", "result": 0, "unit": "%"},
      {"measurement": "plant injury at 500 ppm", "setting": "Wheat", "result": 40, "unit": "%"},
      {"measurement": "pest or weed control at 15.6 ppm", "setting": "Wild Oats; read-out: % Control", "result": 40, "unit": "%"},
      {"measurement": "pest or weed control at 31.25 ppm", "setting": "Wild Oats; read-out: % Control", "result": 100, "unit": "%"},
      {"measurement": "pest or weed control at 62.5 ppm", "setting": "Wild Oats; read-out: % Control", "result": 95, "unit": "%"},
      {"measurement": "pest or weed control at 125 ppm", "setting": "Wild Oats; read-out: % Control", "result": 90, "unit": "%"},
      {"measurement": "pest or weed control at 250 ppm", "setting": "Wild Oats; read-out: % Control", "result": 100, "unit": "%"},
      {"measurement": "pest or weed control at 500 ppm", "setting": "Wild Oats; read-out: % Control", "result": 100, "unit": "%"},
      {"measurement": "% Control", "setting": "Barley; 15.6 ppm", "result": 0, "unit": "%"},
      {"measurement": "% Control", "setting": "Barley; 31.25 ppm", "result": 0, "unit": "%"},
      {"measurement": "% Control", "setting": "Barley; 62.5 ppm", "result": 0, "unit": "%"},
      {"measurement": "% Control", "setting": "Barley; 125 ppm", "result": 0, "unit": "%"},
      {"measurement": "% Control", "setting": "Barley; 250 ppm", "result": 0, "unit": "%"},
      {"measurement": "% Control", "setting": "Barley; 500 ppm", "result": 50, "unit": "%"},
      {"measurement": "% Control", "setting": "Blackgrass; 1.56 ppm", "result": 50, "unit": "%"},
      {"measurement": "% Control", "setting": "Blackgrass; 3.1 ppm", "result": 50, "unit": "%"},
      {"measurement": "% Control", "setting": "Blackgrass; 6.3 ppm", "result": 100, "unit": "%"},
      {"measurement": "% Control", "setting": "Blackgrass; 12.5 ppm", "result": 100, "unit": "%"},
      {"measurement": "% Control", "setting": "Blackgrass; 25 ppm", "result": 99, "unit": "%"},
      {"measurement": "% Control", "setting": "Blackgrass; 50 ppm", "result": 100, "unit": "%"},
      {"measurement": "% Control", "setting": "Blackgrass; 100 ppm", "result": 100, "unit": "%"},
      {"measurement": "% Control", "setting": "Cheatgrass; 1.56 ppm", "result": 0, "unit": "%"},
      {"measurement": "% Control", "setting": "Cheatgrass; 3.1 ppm", "result": 0, "unit": "%"},
      {"measurement": "% Control", "setting": "Cheatgrass; 6.3 ppm", "result": 0, "unit": "%"},
      {"measurement": "% Control", "setting": "Cheatgrass; 12.5 ppm", "result": 0, "unit": "%"},
      {"measurement": "% Control", "setting": "Cheatgrass; 25 ppm", "result": 0, "unit": "%"},
      {"measurement": "% Control", "setting": "Cheatgrass; 50 ppm", "result": 10, "unit": "%"},
      {"measurement": "% Control", "setting": "Cheatgrass; 100 ppm", "result": 40, "unit": "%"},
      {"measurement": "% Control", "setting": "Green Foxtail; 1.56 ppm", "result": 95, "unit": "%"},
      {"measurement": "% Control", "setting": "Green Foxtail; 3.1 ppm", "result": 100, "unit": "%"},
      {"measurement": "% Control", "setting": "Green Foxtail; 6.3 ppm", "result": 100, "unit": "%"},
      {"measurement": "% Control", "setting": "Green Foxtail; 12.5 ppm", "result": 100, "unit": "%"},
      {"measurement": "% Control", "setting": "Green Foxtail; 25 ppm", "result": 100, "unit": "%"},
      {"measurement": "% Control", "setting": "Green Foxtail; 50 ppm", "result": 100, "unit": "%"},
      {"measurement": "% Control", "setting": "Green Foxtail; 100 ppm", "result": 100, "unit": "%"},
      {"measurement": "% Control", "setting": "Yellow Foxtail; 1.56 ppm", "result": 50, "unit": "%"},
      {"measurement": "% Control", "setting": "Yellow Foxtail; 3.1 ppm", "result": 80, "unit": "%"},
      {"measurement": "% Control", "setting": "Yellow Foxtail; 6.3 ppm", "result": 100, "unit": "%"},
      {"measurement": "% Control", "setting": "Yellow Foxtail; 12.5 ppm", "result": 100, "unit": "%"},
      {"measurement": "% Control", "setting": "Yellow Foxtail; 25 ppm", "result": 100, "unit": "%"},
      {"measurement": "% Control", "setting": "Yellow Foxtail; 50 ppm", "result": 100, "unit": "%"},
      {"measurement": "% Control", "setting": "Yellow Foxtail; 100 ppm", "result": 100, "unit": "%"}
    ]}
  ]
}
